{"source": "ChEMBL document CHEMBL4011618", "about": "“Discovery of Potent, Selective Stem Cell Factor Receptor/Platelet Derived Growth Factor Receptor Alpha (c-KIT/PDGFRα) Dual Inhibitor for the Treatment of Imatinib-Resistant Gastrointestinal Stromal Tumors (GISTs)” (J Med Chem, 2017)", "key": {"[1]": {"test_system": "Mast/stem cell growth factor receptor Kit (Homo sapiens), P10721 [D816V]", "sequence (P10721 whole entry D816V)": "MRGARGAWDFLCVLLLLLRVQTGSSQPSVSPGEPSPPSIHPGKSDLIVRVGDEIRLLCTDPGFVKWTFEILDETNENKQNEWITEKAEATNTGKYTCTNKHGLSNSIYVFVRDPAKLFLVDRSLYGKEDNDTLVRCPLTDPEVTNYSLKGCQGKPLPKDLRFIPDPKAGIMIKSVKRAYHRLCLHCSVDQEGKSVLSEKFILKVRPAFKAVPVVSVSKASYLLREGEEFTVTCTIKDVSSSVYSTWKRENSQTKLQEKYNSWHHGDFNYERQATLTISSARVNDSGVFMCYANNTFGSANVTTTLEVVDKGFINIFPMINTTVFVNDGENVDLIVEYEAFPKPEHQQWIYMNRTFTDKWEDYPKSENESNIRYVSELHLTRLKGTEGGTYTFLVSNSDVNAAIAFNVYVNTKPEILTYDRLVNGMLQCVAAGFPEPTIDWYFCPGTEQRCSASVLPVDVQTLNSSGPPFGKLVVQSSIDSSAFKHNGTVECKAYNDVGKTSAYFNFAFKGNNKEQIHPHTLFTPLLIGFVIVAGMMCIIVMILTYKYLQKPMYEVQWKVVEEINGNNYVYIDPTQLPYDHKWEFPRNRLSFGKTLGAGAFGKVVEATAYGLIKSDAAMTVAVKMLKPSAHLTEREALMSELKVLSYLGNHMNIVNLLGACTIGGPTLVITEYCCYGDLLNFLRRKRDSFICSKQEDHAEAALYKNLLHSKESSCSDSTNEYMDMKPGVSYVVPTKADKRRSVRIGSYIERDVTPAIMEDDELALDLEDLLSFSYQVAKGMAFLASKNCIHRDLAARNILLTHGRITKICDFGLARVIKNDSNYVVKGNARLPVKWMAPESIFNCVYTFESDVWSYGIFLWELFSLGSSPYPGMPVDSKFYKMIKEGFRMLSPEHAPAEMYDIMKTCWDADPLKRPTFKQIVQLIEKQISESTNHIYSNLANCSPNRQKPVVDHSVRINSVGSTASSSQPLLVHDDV", "description": "Inhibition of TEL-fused cKIT D816V mutant (unknown origin) expressed in mouse BAF3 cells assessed as cell growth inhibition after 72 hrs by cell titer-glo assay"}, "[2]": {"molecular_target": "Voltage-gated inwardly rectifying potassium channel KCNH2 (Homo sapiens, UniProt Q12809)", "assay": "Inhibition of human ERG expressed in CHO cells by whole cell patch clamp assay", "format": "cell-based"}, "[3]": {"test_system": "Platelet-derived growth factor receptor alpha (Homo sapiens), P16234 [T674I]", "sequence (P16234 whole entry T674I)": "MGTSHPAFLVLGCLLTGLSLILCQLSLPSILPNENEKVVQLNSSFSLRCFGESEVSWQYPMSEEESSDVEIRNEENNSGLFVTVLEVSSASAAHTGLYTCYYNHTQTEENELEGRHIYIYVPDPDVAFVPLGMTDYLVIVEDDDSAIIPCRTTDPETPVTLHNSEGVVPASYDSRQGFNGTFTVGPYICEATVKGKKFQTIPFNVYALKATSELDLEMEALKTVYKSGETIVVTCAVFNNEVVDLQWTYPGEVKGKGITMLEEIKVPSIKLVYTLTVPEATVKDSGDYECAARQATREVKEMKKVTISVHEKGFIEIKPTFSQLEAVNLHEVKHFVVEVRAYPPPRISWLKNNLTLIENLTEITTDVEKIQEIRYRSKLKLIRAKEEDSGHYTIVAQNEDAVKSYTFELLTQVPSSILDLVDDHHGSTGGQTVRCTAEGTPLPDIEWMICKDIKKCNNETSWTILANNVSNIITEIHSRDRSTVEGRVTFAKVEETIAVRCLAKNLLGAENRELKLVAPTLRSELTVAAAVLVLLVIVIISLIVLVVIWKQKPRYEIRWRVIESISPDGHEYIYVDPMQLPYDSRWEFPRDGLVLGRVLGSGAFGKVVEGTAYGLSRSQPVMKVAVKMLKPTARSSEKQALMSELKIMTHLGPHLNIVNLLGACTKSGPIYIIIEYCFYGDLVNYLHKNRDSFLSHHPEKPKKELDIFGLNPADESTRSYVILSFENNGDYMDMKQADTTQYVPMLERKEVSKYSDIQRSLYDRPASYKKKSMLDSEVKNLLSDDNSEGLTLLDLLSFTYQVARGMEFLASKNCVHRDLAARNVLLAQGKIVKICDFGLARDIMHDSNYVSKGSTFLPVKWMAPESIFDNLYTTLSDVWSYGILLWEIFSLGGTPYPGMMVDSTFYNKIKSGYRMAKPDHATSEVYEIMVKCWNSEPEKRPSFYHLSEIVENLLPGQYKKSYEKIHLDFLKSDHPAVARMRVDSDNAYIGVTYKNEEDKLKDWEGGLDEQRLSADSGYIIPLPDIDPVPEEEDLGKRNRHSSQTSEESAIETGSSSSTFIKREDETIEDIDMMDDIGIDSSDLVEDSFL", "description": "Inhibition of TEL-fused PDGFRalpha T674I mutant (unknown origin) expressed in mouse BAF3 cells assessed as cell growth inhibition after 72 hrs by cell titer-glo assay"}, "K562": {"test_system": "K562", "assay": "Antiproliferative activity against human K562 cells assessed as cell growth inhibition after 72 hrs by cell titer-glo assay", "format": "functional", "settings": "K562, 72 h"}, "[4]": {"test_system": "Mast/stem cell growth factor receptor Kit (Homo sapiens), P10721 [T670I]", "sequence (P10721 whole entry T670I)": "as the sequence (P10721 whole entry D816V) above, with T670I, V816D counted along it", "description": "Inhibition of TEL-fused cKIT T670I mutant (unknown origin) expressed in mouse BAF3 cells assessed as cell growth inhibition after 72 hrs by cell titer-glo assay"}, "[5]": {"assay": "Apparent clearance in Sprague-Dawley rat at 2 mg/kg, iv up to 24 hrs post dose by LC/MS/MS analysis", "format": "ADME, organism-based", "settings": "in vivo, read-out: CL(app) (converted)"}, "[6]": {"test_system": "Mast/stem cell growth factor receptor Kit (Homo sapiens), P10721 [V559D,V654A]", "sequence (P10721 whole entry V559D/V654A)": "as the sequence (P10721 whole entry D816V) above, with V559D, V654A, V816D counted along it"}, "[7]": {"test_system": "Mast/stem cell growth factor receptor Kit (Homo sapiens), P10721 [L576P]", "sequence (P10721 whole entry L576P)": "as the sequence (P10721 whole entry D816V) above, with L576P, V816D counted along it", "description": "Inhibition of TEL-fused cKIT L576P mutant (unknown origin) expressed in mouse BAF3 cells assessed as cell growth inhibition after 72 hrs by cell titer-glo assay"}, "[8]": {"assay": "Antiproliferative activity against mouse BAF3 cells assessed as cell growth inhibition after 72 hrs by cell titer-glo assay", "format": "cell-based"}, "GIST882": {"test_system": "GIST882", "assay": "Antiproliferative activity against human GIST882 cells assessed as cell growth inhibition after 72 hrs by cell titer-glo assay", "format": "functional", "settings": "GIST882, 72 h"}, "Mus musculus [9]": {"test_system": "Mus musculus", "assay": "Toxicity in nu/nu mouse allografted with mouse BAF3 cells harboring TEL-cKIT-T670I mutant assessed as change in body weight at 25 to 100 mg/kg, ip administered daily for 11 days relative to control", "format": "organism-based", "settings": "in vivo, 264 h"}, "[10]": {"assay": "Tmax in Sprague-Dawley rat at 25 mg/kg, ip up to 24 hrs post dose by LC/MS/MS analysis", "format": "ADME, organism-based", "settings": "in vivo"}, "[11]": {"assay": "Volume of distribution at steady state in Sprague-Dawley rat at 2 mg/kg, iv up to 24 hrs post dose by LC/MS/MS analysis", "format": "ADME, organism-based", "settings": "in vivo, read-out: Vdss"}, "[12]": {"assay": "Half life in Sprague-Dawley rat at 25 mg/kg, ip up to 24 hrs post dose by LC/MS/MS analysis", "format": "ADME, organism-based", "settings": "in vivo"}, "[13]": {"assay": "Antiproliferative activity against CHL cells assessed as cell growth inhibition after 72 hrs by cell titer-glo assay", "format": "cell-based, Cricetulus griseus", "settings": "chinese hamster"}, "[14]": {"test_system": "Mast/stem cell growth factor receptor Kit (Homo sapiens), P10721 [N822K]", "sequence (P10721 whole entry N822K)": "as the sequence (P10721 whole entry D816V) above, with V816D, N822K counted along it", "description": "Inhibition of TEL-fused cKIT N822K mutant (unknown origin) expressed in mouse BAF3 cells assessed as cell growth inhibition after 72 hrs by cell titer-glo assay"}, "[15]": {"assay": "AUC (0 to infinity) in Sprague-Dawley rat at 25 mg/kg, ip up to 24 hrs post dose by LC/MS/MS analysis", "format": "ADME, organism-based", "parameters": "dose 25 mg/kg, time infinity, route intraperitoneal", "settings": "in vivo"}, "[16]": {"assay": "Cmax in Sprague-Dawley rat at 2 mg/kg, iv up to 24 hrs post dose by LC/MS/MS analysis", "format": "ADME, organism-based", "parameters": "dose 2 mg/kg, route intravenous", "settings": "in vivo"}, "GISTT1": {"test_system": "GISTT1", "assay": "Antitumor activity against human GISTT1 cells xenografted in nu/nu mouse assessed as tumor growth inhibition at 100 mg/kg, ip administered daily for 28 days relative to control", "format": "functional", "settings": "672 h, read-out: TGI"}, "[17]": {"assay": "Half life in Sprague-Dawley rat at 2 mg/kg, iv up to 24 hrs post dose by LC/MS/MS analysis", "format": "ADME, organism-based", "settings": "in vivo"}, "[18]": {"molecular_target": "T1, Mast/stem cell growth factor receptor Kit (Homo sapiens, UniProt P10721)", "T1 sequence (P10721 whole entry)": "as the sequence (P10721 whole entry D816V) above, with V816D counted along it", "description": "Inhibition of cKIT (unknown origin) using FAM-labeled peptide as substrate preincubated for 10 mins followed by substrate addition in presence of ATP by mobility shift assay"}, "[19]": {"molecular_target": "Proto-oncogene tyrosine-protein kinase receptor Ret (Homo sapiens, UniProt P07949)", "sequence (P07949 whole entry, the tested form may be a part)": "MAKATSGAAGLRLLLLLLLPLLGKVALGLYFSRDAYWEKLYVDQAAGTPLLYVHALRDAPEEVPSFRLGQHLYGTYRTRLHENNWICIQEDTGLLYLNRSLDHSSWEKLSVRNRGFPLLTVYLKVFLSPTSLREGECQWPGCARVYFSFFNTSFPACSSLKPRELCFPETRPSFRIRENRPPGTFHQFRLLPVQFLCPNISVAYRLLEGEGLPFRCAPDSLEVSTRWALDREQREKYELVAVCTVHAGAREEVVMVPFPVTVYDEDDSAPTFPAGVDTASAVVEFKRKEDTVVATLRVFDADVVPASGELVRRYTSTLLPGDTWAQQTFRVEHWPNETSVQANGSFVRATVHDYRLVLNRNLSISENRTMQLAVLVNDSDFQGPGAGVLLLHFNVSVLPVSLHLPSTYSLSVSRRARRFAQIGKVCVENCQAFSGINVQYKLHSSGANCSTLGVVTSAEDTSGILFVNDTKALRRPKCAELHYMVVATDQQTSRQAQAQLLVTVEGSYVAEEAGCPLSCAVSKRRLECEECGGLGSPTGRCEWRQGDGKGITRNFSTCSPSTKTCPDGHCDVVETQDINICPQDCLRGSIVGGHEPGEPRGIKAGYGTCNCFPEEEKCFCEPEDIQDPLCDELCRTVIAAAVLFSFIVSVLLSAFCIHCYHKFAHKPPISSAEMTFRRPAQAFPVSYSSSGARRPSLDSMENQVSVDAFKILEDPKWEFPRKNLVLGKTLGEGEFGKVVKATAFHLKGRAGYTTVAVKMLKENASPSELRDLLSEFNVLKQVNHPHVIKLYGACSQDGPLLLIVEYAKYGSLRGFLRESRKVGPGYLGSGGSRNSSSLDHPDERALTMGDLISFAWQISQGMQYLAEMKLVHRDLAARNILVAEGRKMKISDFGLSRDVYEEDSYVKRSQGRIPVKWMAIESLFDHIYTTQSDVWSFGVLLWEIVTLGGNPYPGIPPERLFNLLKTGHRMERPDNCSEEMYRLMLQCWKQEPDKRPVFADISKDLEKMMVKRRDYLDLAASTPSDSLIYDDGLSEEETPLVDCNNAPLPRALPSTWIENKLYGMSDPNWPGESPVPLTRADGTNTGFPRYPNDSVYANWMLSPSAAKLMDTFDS", "assay": "Inhibition of human GST-tagged RET (658 to 1114 residues) expressed in baculovirus by ELISA"}, "[20]": {"test_system": "Mast/stem cell growth factor receptor Kit (Homo sapiens), P10721 [A829P]", "sequence (P10721 whole entry A829P)": "as the sequence (P10721 whole entry D816V) above, with V816D, A829P counted along it", "description": "Inhibition of TEL-fused cKIT A829P mutant (unknown origin) expressed in mouse BAF3 cells assessed as cell growth inhibition after 72 hrs by cell titer-glo assay"}, "[21]": {"test_system": "Mast/stem cell growth factor receptor Kit (Homo sapiens), P10721 [V559D,T670I]", "sequence (P10721 whole entry V559D/T670I)": "as the sequence (P10721 whole entry D816V) above, with V559D, T670I, V816D counted along it"}, "[22]": {"molecular_target": "Platelet-derived growth factor receptor alpha (Homo sapiens, UniProt P16234)", "sequence (P16234 whole entry)": "as the sequence (P16234 whole entry T674I) above, with I674T counted along it", "assay": "Inhibition of PDGFRalpha (unknown origin) using FAM-labeled peptide as substrate preincubated for 10 mins followed by substrate addition in presence of ATP by mobility shift assay"}, "[23]": {"assay": "AUC (0 to infinity) in Sprague-Dawley rat at 100 mg/kg, ip up to 24 hrs post dose by LC/MS/MS analysis", "format": "ADME, organism-based", "parameters": "dose 100 mg/kg, time infinity, route intraperitoneal", "settings": "in vivo"}, "Mus musculus [24]": {"test_system": "Mus musculus", "assay": "Toxicity in nu/nu mouse xenografted with human GISTT1 cells assessed as mortality at 25 to 100 mg/kg, ip administered daily for 28 days measured during compound dosing", "format": "organism-based", "settings": "in vivo, 672 h"}, "[25]": {"assay": "Tmax in Sprague-Dawley rat at 2 mg/kg, iv up to 24 hrs post dose by LC/MS/MS analysis", "format": "ADME, organism-based", "settings": "in vivo"}, "[26]": {"molecular_target": "Vascular endothelial growth factor receptor 3 (Homo sapiens, UniProt P35916)", "assay": "Inhibition of human GST-tagged FLT4 (800 to 1297 residues) expressed in baculovirus by ELISA"}, "[27]": {"assay": "AUC (0 to t) in Sprague-Dawley rat at 2 mg/kg, iv up to 24 hrs post dose by LC/MS/MS analysis", "format": "ADME, organism-based", "parameters": "dose 2 mg/kg, time < 24 hr, route intravenous", "settings": "in vivo"}, "[28]": {"assay": "MRT (0 to t) in Sprague-Dawley rat at 25 mg/kg, ip up to 24 hrs post dose by LC/MS/MS analysis", "format": "ADME, organism-based", "settings": "in vivo"}, "[29]": {"assay": "MRT (0 to t) in Sprague-Dawley rat at 2 mg/kg, iv up to 24 hrs post dose by LC/MS/MS analysis", "format": "ADME, organism-based", "settings": "in vivo"}, "[30]": {"molecular_target": "Platelet-derived growth factor receptor beta (Homo sapiens, UniProt P09619)", "sequence (P09619 whole entry, the tested form may be a part)": "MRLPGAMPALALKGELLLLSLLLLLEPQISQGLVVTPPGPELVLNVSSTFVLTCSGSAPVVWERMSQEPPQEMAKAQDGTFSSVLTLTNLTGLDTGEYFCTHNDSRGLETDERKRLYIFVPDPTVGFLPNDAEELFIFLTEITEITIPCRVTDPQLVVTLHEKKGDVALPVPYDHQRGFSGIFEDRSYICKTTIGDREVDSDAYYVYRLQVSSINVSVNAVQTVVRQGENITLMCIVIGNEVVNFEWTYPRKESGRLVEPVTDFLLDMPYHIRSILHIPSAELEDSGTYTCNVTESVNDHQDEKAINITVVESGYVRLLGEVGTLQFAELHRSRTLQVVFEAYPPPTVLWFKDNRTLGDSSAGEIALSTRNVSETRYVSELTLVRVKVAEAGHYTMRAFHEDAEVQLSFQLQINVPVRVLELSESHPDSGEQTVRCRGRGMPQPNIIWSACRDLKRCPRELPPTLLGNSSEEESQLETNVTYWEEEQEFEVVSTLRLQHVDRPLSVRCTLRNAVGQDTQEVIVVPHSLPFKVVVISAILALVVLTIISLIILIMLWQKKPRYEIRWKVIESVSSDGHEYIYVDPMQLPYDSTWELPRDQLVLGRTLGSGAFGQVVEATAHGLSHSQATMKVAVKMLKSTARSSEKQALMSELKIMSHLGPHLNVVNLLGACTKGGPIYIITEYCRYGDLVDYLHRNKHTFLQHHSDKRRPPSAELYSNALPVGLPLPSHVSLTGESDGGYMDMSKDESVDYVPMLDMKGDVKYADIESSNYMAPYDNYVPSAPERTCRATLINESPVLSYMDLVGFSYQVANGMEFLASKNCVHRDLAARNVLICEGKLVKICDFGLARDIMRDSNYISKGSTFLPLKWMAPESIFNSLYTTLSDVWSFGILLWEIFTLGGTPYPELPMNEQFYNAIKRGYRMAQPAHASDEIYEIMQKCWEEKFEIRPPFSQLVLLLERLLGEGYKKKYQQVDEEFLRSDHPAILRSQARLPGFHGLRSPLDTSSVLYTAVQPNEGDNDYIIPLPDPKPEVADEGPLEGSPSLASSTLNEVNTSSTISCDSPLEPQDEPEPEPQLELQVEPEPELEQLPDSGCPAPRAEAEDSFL", "assay": "Inhibition of human His-tagged PDGFRbeta (558 to 1106 residues) expressed in baculovirus by ELISA"}, "[31]": {"assay": "MRT (0 to t) in Sprague-Dawley rat at 100 mg/kg, ip up to 24 hrs post dose by LC/MS/MS analysis", "format": "ADME, organism-based", "settings": "in vivo"}, "[32]": {"assay": "MRT (0 to infinity) in Sprague-Dawley rat at 100 mg/kg, ip up to 24 hrs post dose by LC/MS/MS analysis", "format": "ADME, organism-based", "settings": "in vivo"}, "[33]": {"molecular_target": "T1, Mast/stem cell growth factor receptor Kit", "remark": "listed apart in the source", "description": "Inhibition of TEL-fused cKIT (unknown origin) expressed in mouse BAF3 cells assessed as cell growth inhibition after 72 hrs by cell titer-glo assay"}, "[34]": {"assay": "Half life in rat liver microsomes at 1 uM in presence of NADPH by LC-MS/MS", "format": "ADME, microsome"}, "[35]": {"molecular_target": "Tyrosine-protein kinase ABL2 (Homo sapiens) (UniProt P42684)", "assay": "Inhibition of human wild type ABL2 (248 to 542 residues) expressed in bacterial expression system assessed as activity remaining at 1 uM by KINOMEscan assay relative to control"}, "[36]": {"test_system": "Mast/stem cell growth factor receptor Kit (Homo sapiens), P10721 [D816H]", "sequence (P10721 whole entry D816H)": "as the sequence (P10721 whole entry D816V) above, with V816H counted along it", "description": "Inhibition of TEL-fused cKIT D816H mutant (unknown origin) expressed in mouse BAF3 cells assessed as cell growth inhibition after 72 hrs by cell titer-glo assay"}}}
{"smiles": "Cc1cc(NC(=O)Nc2ccc(-c3ccnc4[nH]nc(C)c34)cc2)ccc1N1CCOCC1", "values": [{"measurement": "GI50", "setting": "[1]", "value": "> 10000", "unit": "nM"}, {"measurement": "IC50", "setting": "[2]", "value": "> 40000", "unit": "nM"}, {"measurement": "GI50", "setting": "[3]", "value": 135, "unit": "nM"}, {"measurement": "GI50", "setting": "K562", "value": "> 10000", "unit": "nM"}, {"measurement": "GI50", "setting": "[4]", "value": 39.2, "unit": "nM"}, {"measurement": "clearance", "setting": "[5]", "value": 15.8, "unit": "mL/min/kg"}, {"measurement": "GI50", "setting": "[6]", "value": 330, "unit": "nM"}, {"measurement": "GI50", "setting": "[7]", "value": 10.6, "unit": "nM"}, {"measurement": "GI50 at 72 h", "setting": "[8]", "value": 4030, "unit": "nM"}, {"measurement": "GI50", "setting": "GIST882", "value": "< 3", "unit": "nM"}, {"measurement": "Activity", "setting": "Mus musculus [9]", "value": "Non-Toxic"}, {"measurement": "Tmax", "setting": "[10]", "value": 4, "unit": "h"}, {"measurement": "Vd", "setting": "[11]", "value": 0.97, "unit": "L/kg"}, {"measurement": "half-life", "setting": "[12]", "value": 5.09, "unit": "h"}, {"measurement": "GI50 at 72 h", "setting": "[13]", "value": 7040, "unit": "nM"}, {"measurement": "GI50", "setting": "[14]", "value": 11.1, "unit": "nM"}, {"measurement": "AUC(0-inf)", "setting": "[15]", "value": 713, "unit": "ng·h/mL"}, {"measurement": "Cmax", "setting": "[16]", "value": 1890, "unit": "ng/mL"}, {"measurement": "inhibition in vivo at 100 mg/kg", "setting": "GISTT1", "value": 81.5, "unit": "%"}, {"measurement": "half-life", "setting": "[17]", "value": 0.69, "unit": "h"}, {"measurement": "IC50", "setting": "[18]", "value": 2.4, "unit": "nM"}, {"measurement": "IC50", "setting": "[19]", "value": "> 1000", "unit": "nM"}, {"measurement": "GI50", "setting": "[20]", "value": 11.6, "unit": "nM"}, {"measurement": "GI50", "setting": "[21]", "value": 36.4, "unit": "nM"}, {"measurement": "IC50", "setting": "[22]", "value": 7.2, "unit": "nM"}, {"measurement": "AUC(0-inf)", "setting": "[23]", "value": 5390, "unit": "ng·h/mL"}, {"measurement": "Activity", "setting": "Mus musculus [24]", "value": "Non-Toxic"}, {"measurement": "Tmax", "setting": "[25]", "value": 4.98, "unit": "min"}, {"measurement": "IC50", "setting": "[26]", "value": 72, "unit": "nM"}, {"measurement": "AUC(0-t) at 24 h", "setting": "[27]", "value": 2240, "unit": "ng·h/mL"}, {"measurement": "MRT last at 24 h", "setting": "[28]", "value": 5.67, "unit": "h"}, {"measurement": "MRT last at 24 h", "setting": "[29]", "value": 1.13, "unit": "h"}, {"measurement": "IC50", "setting": "[30]", "value": "< 1", "unit": "nM"}, {"measurement": "MRT last at 24 h", "setting": "[31]", "value": 7.99, "unit": "h"}, {"measurement": "MRT inf", "setting": "[32]", "value": 14.8, "unit": "h"}, {"measurement": "GI50", "setting": "[33]", "value": 18.1, "unit": "nM"}, {"measurement": "half-life at 1 µM", "setting": "[34]", "value": 0.779, "unit": "h"}, {"measurement": "Activity", "setting": "[35]", "value": "> 35", "unit": "%"}, {"measurement": "GI50", "setting": "[36]", "value": 134, "unit": "nM"}]}
